The text below walks through data of patent publication US10208074B2, “Pyrazole compounds and method for making and using the compounds” (Rigel Pharmaceuticals, Inc., priority 2015, dated 2019).

In experiment [1] the test system is IL-23p19. Briefly: LPS induced IL23p19 in THP-1 cells (with IFNγ primed) assay. It counts as cell-based, Human. Conditions: THP-1 cells, IFNγ primed, LPS 1 ug/mL, 18 hours, 10 pt, read-out: IL23-p19 ELISA, THP1-IFNy, LPS, 10 pt EC50. The essentials: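 THP-1 cells primed ~18 h with IFNγ (50 ng/mL), pre-incubated 1 h with compound at 37 °C, then stimulated 18 h with LPS (1 ug/mL final). Supernatant IL-23p19 measured by sandwich ELISA with chemiluminescent read-out; EC50 from curve fitting. Toxicity checked on the remaining cells by Cell Titer Glo.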
On the technique in general: ELISA stands for enzyme-linked immunosorbent assay.

Experiment [2] relates to IL-23 (p19/p40). The experiment can be described thus: IL23-p19 ELISA, Dendritic, LPS (compound screening using DC cells). It is filed as cell-based, Human. Conditions: PBMC-derived DC cells, IFNγ primed, LPS 1 μg/ml, 18 hours, 10 pt, read-out: IL23-p19 ELISA, Dendritic, LPS, 10 pt, EC50. The essentials:
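Human PBMC-derived dendritic cells (7 d GM-CSF 100 ng/ml + IL-4 20 ng/ml), primed 24 h with IFNγ 50 ng/ml, pre-incubated 1 h with compound, then stimulated 18 h with LPS 1 μg/ml. Supernatant IL-23 measured by p19-capture/p40-detection chemiluminescent ELISA; CellTiter Glo checks cytotoxicity.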

Each structure is given as a SMILES string. pEC50: −log10 of the molar value. Where a name gives a salt, the structure may show the parent alone. Read-outs that look alike come from different tables or passages of the source.

Take `CCO[C@H]1C[C@@H](n2cc(NC(=O)c3csc(-c4cnn(COP(=O)(O)O)c4)n3)c(-c3ccccn3)n2)C1` [II-16, (4-(4-((1-((1,3-cis)-3-ethoxycyclobutyl)-3-(pyridin-2-yl)-1H-pyrazol-4-yl)carbamoyl)thiazol-2-yl)-1H-pyrazol-1-yl)methyl phosphate bis-sodium salt]: the negative-log EC50 (pEC50) – broadly, the EC50 on a negative log10 scale, so that one unit is a factor of ten – is 6.92 in experiment [1] (phosphate bis-sodium salt) and 6.28 in experiment [2] (phosphate bis-sodium salt).
`CCO[C@H]1C[C@@H](n2cc(NC(=O)c3csc(-c4cnn(COP(=O)(O)O)c4)n3)c(-c3ccccn3)n2)C1` [II-81, (4-(4-((1-((1,3-cis)-3-ethoxycyclobutyl)-3-(pyridin-2-yl)-1H-pyrazol-4-yl)carbamoyl)thiazol-2-yl)-1H-pyrazol-1-yl)methyl phosphate bis-lysine salt]: the negative-log EC50 (pEC50) in experiment [1] is 7.72; in experiment [2], 6.77.
Take `C[C@]1(O)C[C@H](n2cc(NC(=O)c3csc(-c4cn[nH]c4)n3)c(-c3ccccn3)n2)C1` [II-79, N-(1-((1r,3r)-3-hydroxy-3-methylcyclobutyl)-3-(pyridin-2-yl)-1H-pyrazol-4-yl)-2-(1H-pyrazol-4-yl)thiazole-4-carboxamide]: the pEC50 was 7.12 in experiment [1] (Homo sapiens, THP-1, 18 h) and 7.82 in experiment [2] (Homo sapiens, 18 h).
As to `CCO[C@H]1C[C@@H](n2cc(NC(=O)c3csc(-c4cn[nH]c4)n3)c(-c3ccccn3)n2)C1` [II-11, N-(1-((1,3-cis)-3-ethoxycyclobutyl)-3-(pyridin-2-yl)-1H-pyrazol-4-yl)-2-(1H-pyrazol-4-yl)thiazole-4-carboxamide], the negative logarithm of the EC50 (pEC50) in experiment [1] (Homo sapiens, THP-1, 18 h) was 7.30; in experiment [2] (Homo sapiens, 18 h) it was 7.21.
For `Cc1oc(=O)oc1Cn1cc(-c2nc(C(=O)Nc3cn(C)nc3-c3ccccn3)cs2)cn1` [II-4, 2-(1-((5-methyl-2-oxo-1,3-dioxol-4-yl)methyl)-1H-pyrazol-4-yl)-N-(1-methyl-3-(pyridin-2-yl)-1H-pyrazol-4-yl)thiazole-4-carboxamide], in that order: 7.06 and 6.51.
For `Cn1cc(NC(=O)c2ccc(-c3cn[nH]c3)o2)c(-c2ccc(OC3COC3)cn2)n1` [Compound I-108, N-(1-methyl-3-(5-(oxetan-3-yloxy)pyridin-2-yl)-1H-pyrazol-4-yl)-5-(1H-pyrazol-4-yl)furan-2-carboxamide], in that order: 6.31 and 6.14.
The matching figures for `COCCn1cc(NC(=O)c2ccc(-c3c[nH]nc3C(F)(F)F)o2)c(-c2ccccn2)n1` [Compound I-13, N-(1-(2-methoxyethyl)-3-(pyridin-2-yl)-1H-pyrazol-4-yl)-5-(3-(trifluoromethyl)-1H-pyrazol-4-yl)furan-2-carboxamide]: 3.86 and 4.96.
With `O=C(Nc1cn(C2CN(C(=O)N3CCCC3)C2)nc1-c1ccccn1)c1ccc(-c2cn[nH]c2)o1` [Compound I-93, 5-(1H-Pyrazol-4-yl)-N-{3-(pyridine-2-yl)-1-(pyrrolidine-1-carbonyl)azetidin-3-yl}-1H-pyrazol-4-yl)furan-2-carboxamide, formate salt], the pEC50 is 7.97 in experiment [1] (Homo sapiens, THP-1, 18 h) and 8.10 in experiment [2] (Homo sapiens, 18 h).
For `O=C(Nc1cn(C2CN(C(=O)C3CC3)C2)nc1-c1ccccn1)c1ccc(-c2cn[nH]c2)o1` [Compound I-89, N-[1-{1-(Cyclopropanecarbonyl)azetidin-3-yl}-3-(pyridine-2-yl)-1H-pyrazol-4-yl]-5-(1H-pyrazol-4-yl)furan-2-carboxamide, formate salt], in that order: 7.78 and 7.64.
For `O=C(Nc1cn(C2CN(CC(F)(F)F)C2)nc1-c1ccccn1)c1ccc(-c2cn[nH]c2)o1` [Compound I-97, TFA salt], in that order: 7.44 and 7.48.
With `O=C(Nc1cn(C2CCOCC2)nc1-c1ccccn1)c1csc(-c2cn[nH]c2)n1` [II-10, 2-(1H-pyrazol-4-yl)-N-(3-(pyridin-2-yl)-1-(tetrahydro-2H-pyran-4-yl)-1H-pyrazol-4-yl)thiazole-4-carboxamide], the pEC50 in experiment [1] (Homo sapiens, THP-1, 18 h) was 7.65; in experiment [2] (Homo sapiens, 18 h) it was 7.98.
The matching figures for `CC1(Cn2cc(-c3ccc(C(=O)Nc4cn(CC5(C)COC5)nc4-c4ccccn4)o3)cn2)COC1` [Compound I-48, 5-(1-((3-methyloxetan-3-yl)methyl)-1H-pyrazol-4-yl)-N-(1-((3-methyloxetan-3-yl)methyl)-3-(pyridin-2-yl)-1H-pyrazol-4-yl)furan-2-carboxamide formate]: 5.26 and 5.12.
For `CCOCCn1cc(NC(=O)c2ccc(-c3cnn(C(=O)OC(C)(C)C)c3)o2)c(-c2ccccn2)n1` [Compound I-4, tert-butyl 4-(5-((1-(2-ethoxyethyl)-3-(pyridin-2-yl)-1H-pyrazol-4-yl)carbamoyl)furan-2-yl)-1H-pyrazole-1-carboxylate], in that order: 6.15 and 6.21.
The matching figures for `CC(C)(C)NC(=O)N1CC(n2cc(NC(=O)c3ccc(-c4cn[nH]c4)o3)c(-c3ccccn3)n2)C1` [Compound I-84, 3-[4-{5-(1H-Pyrazol-4-yl)furan-2-carboxamido}-3-(pyridine-2-yl)-1H-pyrazol-1-yl]-N-(tert-butyl)azetidine-1-carboxamide, free base]: 7.37 and 7.01.
For the molecule `O=C(Nc1cn([C@H]2C[C@@H](O)C2)nc1-c1ccccn1)c1ccc(-c2cn[nH]c2)o1` [Compound I-32, N-(1-((1,3-cis)-3-hydroxycyclobutyl)-3-(pyridin-2-yl)-1H-pyrazol-4-yl)-5-(1H-pyrazol-4-yl)furan-2-carboxamide], the pEC50 in experiment [1] (Homo sapiens, THP-1, 18 h) was 7.54; in experiment [2] (Homo sapiens, 18 h) it was 7.08.
As to `COCCn1cc(NC(=O)c2ccc(-c3c[nH]nc3C)o2)c(-c2ccccn2)n1` [Compound I-6, N-(1-(2-methoxyethyl)-3-(pyridin-2-yl)-1H-pyrazol-4-yl)-5-(3-methyl-1H-pyrazol-4-yl)furan-2-carboxamide formic acid], the pEC50 was 6.58 in experiment [1] (Homo sapiens, THP-1, 18 h) and 6.00 in experiment [2] (formic acid).
Take `CCOCCn1cc(NC(=O)c2csc(-c3c[nH]nc3C)n2)c(-c2ccccn2)n1` [II-31, N-(1-(2-ethoxyethyl)-3-(pyridin-2-yl)-1H-pyrazol-4-yl)-2-(3-methyl-1H-pyrazol-4-yl)thiazole-4-carboxamide]: the negative logarithm of the EC50 (pEC50) is 6.77 in experiment [1] and 6.10 in experiment [2].
In the case of `CCOCCn1cc(NC(=O)c2ccc(-c3c(C)n[nH]c3C)o2)c(-c2ccccn2)n1` [Compound I-58, 5-(3,5-dimethyl-1H-pyrazol-4-yl)-N-(1-(2-ethoxyethyl)-3-(pyridin-2-yl)-1H-pyrazol-4-yl)furan-2-carboxamide formate], the negative logarithm of the EC50 (pEC50) in experiment [1] (Homo sapiens, THP-1, 18 h) is 5.55; in experiment [2] (Homo sapiens, 18 h), 4.56.
The matching figures for `CCO[C@H]1C[C@@H](n2cc(NC(=O)c3csc(-c4cn[nH]c4)n3)c(C(N)=O)n2)C1` [II-70, N-(3-carbamoyl-1-((1s,3s)-3-ethoxycyclobutyl)-1H-pyrazol-4-yl)-2-(1H-pyrazol-4-yl)thiazole-4-carboxamide]: 5.73 and 5.99.
The matching figures for `O=C(Nc1cn([C@H]2C[C@@H](OCC(F)(F)F)C2)nc1-c1ncccc1F)c1csc(-c2cn[nH]c2)n1` [II-165, N-(3-(3-fluoropyridin-2-yl)-1-((cis)-3-(2,2,2-trifluoroethoxy)cyclobutyl)-1H-pyrazol-4-yl)-2-(1H-pyrazol-4-yl)thiazole-4-carboxamide]: 7.35 and 7.34.
For `O=C(Nc1cn([C@H]2C[C@H](OCC(F)(F)F)C2)nc1-c1ncccc1F)c1csc(-c2cn[nH]c2)n1` [II-167, N-(3-(3-fluoropyridin-2-yl)-1-((trans)-3-(2,2,2-trifluoroethoxy)cyclobutyl)-1H-pyrazol-4-yl)-2-(1H-pyrazol-4-yl)thiazole-4-carboxamide], in that order: 7.02 and 7.02.
Regarding `COCCn1cc(NC(=O)c2ccc(-c3cnn(COP(=O)(O)OC(C)(C)C)c3)o2)c(-c2ccccn2)n1` [Compound I-11, tert-butyl ((4-(5-((1-(2-methoxyethyl)-3-(pyridin-2-yl)-1H-pyrazol-4-yl)carbamoyl)furan-2-yl)-1H-pyrazol-1-yl)methyl) hydrogen phosphate], the pEC50 in experiment [1] (Homo sapiens, THP-1, 18 h) is 5.31; in experiment [2] (Homo sapiens, 18 h), 5.28.
Turning to `COCCOCCn1cc(NC(=O)c2csc(-c3cn[nH]c3)n2)c(-c2nccs2)n1` [II-113, N-(1-(2-(2-methoxyethoxy)ethyl)-3-(thiazol-2-yl)-1H-pyrazol-4-yl)-2-(1H-pyrazol-4-yl)thiazole-4-carboxamide], the pEC50 in experiment [1] (Homo sapiens, THP-1, 18 h) is 7.07; in experiment [2] (Homo sapiens, 18 h), 6.54.
